Source: US9456599B2, “Adjuvants” (SYNGENTA LIMITED, priority 2012, dated 2016)

Assays:
Septoria tritici [1] = assay: Septoria tritici on wheat, epoxiconazole with compound E (Example 9); assay type: in vivo
Description: (§1) Wheat plants were inoculated with the fungus Septoria tritici. Four days after inoculation the plants were sprayed with a diluted suspension concentrate formulation of the fungicide epoxiconazole at rates of 3, 10, 30 and 100 mg of the fungicide per liter of spray solution, using a laboratory track sprayer which delivered the spray at a rate of 200 liters per hectare. Spray tests were also carried out with a diluted suspension concentrate additionally comprising the carbonate compound E (see Table 7) added to the spray solution at a rate of 0.1% v/v, based on the quantity of spray liquor. The leaves of the plants were assessed visually 12 days after the spray application and the damage was expressed as the percentage of the leaf area infected. Each spray test was replicated four times across the four application rates.
(§2) The results shown in Table 14 below are mean averages over the four rates of epoxiconazole and the four replicates, and are compared to the efficacy of epoxiconazole in the absence of an adjuvant, and epoxiconazole in the presence of oleyl ethoxylate 20EO butyl end capped adjuvant used as a standard adjuvant for comparative purposes (at 0.1% by volume).

Chenopodium album [2] = assay: Glasshouse post-emergence spray test, fomesafen with adjuvant (Example 2); assay type: in vivo; details: fomesafen 60 or 120 g/ha, carbonate 0.2% v/v or Turbocharge 0.5% v/v; mean over two rates, three replicates, 14 and 21 days
Description: (§3) Setaria viridis, Chenopodium album, Abutilon theophrasti and Ipomea hederacea seeds were sown into standard soil in pots and cultivated under controlled conditions in a glasshouse (at 24/18° C. day/night; 16 hours light; 65% humidity).
(§4) When the plants were at the vegetative stage of 2-4 leaves they were sprayed with an aqueous spray solution containing the herbicide fomesafen and 0.2% v/v of one of the carbonates B92-P-Carbonate, B92-B-Carbonate and B96-P-Carbonate (see Table 1).
(§5) The spray solution was applied with a cabinet tracksprayer with a flat fan nozzle (Teejet 11002VS) and an application volume of 200 liter/ha (at 2 bar). Fomesafen was applied at either 60 or 120 grams of pesticide per hectare.
(§6) The test plants were then grown on, in a glasshouse under controlled conditions (at 24/18° C. day/night; 16 hours light; 65% humidity) and watered twice a day. After 14 and 21 days the test was evaluated for general crop injury (100% equals total damage to a plant; 0% equals no damage to a plant).
(§7) The results shown in Table 4 below are mean averages over the two rates of fomesafen, three replicates and the two assessment timings, and are compared to the efficacy of fomesafen in the absence of an adjuvant, and fomesafen in the presence of the commercially available tank-mix adjuvant, Turbocharge®, which was used at an application rate of 0.5% by volume of the spray tank.

Setaria viridis [3] = assay: as above; assay type: in vivo; details: fomesafen 60 or 120 g/ha, carbonate 0.2% v/v or Turbocharge 0.5% v/v; mean over two rates, three replicates, 14 and 21 days
Description: as §3, §4, §5, §6, §7

Abutilon theophrasti [4] = assay: as above; assay type: in vivo; details: fomesafen 60 or 120 g/ha, carbonate 0.2% v/v or Turbocharge 0.5% v/v; mean over two rates, three replicates, 14 and 21 days
Description: as §3, §4, §5, §6, §7

COMBEN = assay: as above; assay type: in vivo, Ipomea hederacea; details: fomesafen 60 or 120 g/ha, carbonate 0.2% v/v or Turbocharge 0.5% v/v; mean over two rates, three replicates, 14 and 21 days
[5] = test system: Setaria viridis, Chenopodium album, Abutilon theophrasti and Ipomea hederacea; assay: Glasshouse post-emergence spray test, fomesafen with adjuvant (Example 2), mean across species; assay type: in vivo; details: fomesafen 60 or 120 g/ha, carbonate 0.2% v/v or Turbocharge 0.5% v/v; 14 and 21 days; Tukey HSD letter
Description: as §3, §4, §5, §6, §7

[6] = test system: Setaria viridis, Chenopodium album, Abutilon theophrasti and Digitaria sanguinalis; assay: Glasshouse post-emergence spray test, nicosulfuron with adjuvant (Example 1), mean across species; assay type: in vivo; details: nicosulfuron 30 or 60 g/ha, adjuvant 0.2% by volume; 17 and 21 days; Tukey HSD letter
Description: (§8) Setaria viridis, Chenopodium album, Abutilon theophrasti and Digitaria sanguinalis seeds were sown into standard soil in pots and cultivated under controlled conditions in a glasshouse (at 24/18° C. day/night; 16 hours light; 65% humidity).
(§9) When the plants were at the vegetative stage of 3-4 leaves they were sprayed with an aqueous spray solution containing the herbicide nicosulfuron and 0.2% v/v of one of the carbonates, B92-P-Carbonate, B92-B-Carbonate and B96-P-Carbonate (see Table 1).
(§10) Each spray solution was applied with a cabinet tracksprayer with a flat fan nozzle (Teejet 11002VS) and an application volume of 200 liter/ha (at 2 bar). Nicosulfuron was applied at either 30 or 60 grams of pesticide per hectare.
(§11) The test plants were then grown on, in a glasshouse under controlled conditions (at 24/18° C. day/night; 16 hours light; 65% humidity) and watered twice a day. After 17 and 21 days the test was evaluated for general crop injury (100% equals total damage to a plant; 0% equals no damage to a plant).
(§12) The results shown in Table 3 below are mean averages over the two rates of nicosulfuron, three replicates and the two assessment timings, and are compared to the efficacy of nicosulfuron in the absence of an adjuvant and nicosulfuron in the presence of the commercially available tank-mix adjuvant, Atplus411F® (at 0.2% by volume).

Digitaria sanguinalis = assay: Glasshouse post-emergence spray test, nicosulfuron with adjuvant (Example 1); assay type: in vivo; details: nicosulfuron 30 or 60 g/ha, adjuvant 0.2% by volume; mean over two rates, three replicates, 17 and 21 days
Description: as §8, §9, §10, §11, §12

Chenopodium album [7] = assay: as above; assay type: in vivo; details: nicosulfuron 30 or 60 g/ha, adjuvant 0.2% by volume; mean over two rates, three replicates, 17 and 21 days
Description: as §8, §9, §10, §11, §12

Setaria viridis [8] = assay: as above; assay type: in vivo; details: nicosulfuron 30 or 60 g/ha, adjuvant 0.2% by volume; mean over two rates, three replicates, 17 and 21 days
Description: as §8, §9, §10, §11, §12

Abutilon theophrasti [9] = assay: as above; assay type: in vivo; details: nicosulfuron 30 or 60 g/ha, adjuvant 0.2% by volume; mean over two rates, three replicates, 17 and 21 days
Description: as §8, §9, §10, §11, §12

[10] = test system: Setaria viridis, Chenopodium album, Abutilon theophrasti and Digitaria sanguinalis; assay: Glasshouse spray test, nicosulfuron with carbonates A-E (Example 5), mean over four plant species; assay type: in vivo; details: for Mean % Phytotoxicity: Atplus 411F 0.5% by volume, 22 days, mean over rates, replicates, four species; for Adjuvant effect on efficacy of nicosulfuron (in words): 0.2% v/v carbonate with nicosulfuron, Tables 8 and 9
Description: as §8
When the plants were at the vegetative stage of 3-4 leaves they were sprayed with an aqueous spray solution containing the herbicide nicosulfuron and 0.2% v/v of one of the carbonates A, B, C, D and E (see Table 7).
Each spray solution was applied with a cabinet tracksprayer with a flat fan nozzle (Teejet 11002VS) and an application volume of 200 liter/ha (at 2 bar). Nicosulfuron was applied at either 15 or 60 grams of pesticide per hectare.
as §6, with “22” for “14 and 21”, “injury or phytotoxicity” for “injury”
as §12, with “8” for “3”, “nicosulfuron, the” for “nicosulfuron,”, “four plant species,” for “two assessment timings,”, “0.5%” for “0.2%”

[11] = test system: Brachiaria plantaginea, Digitaria sanguinalis, Commelina benghalensis and Polygonum convulvulus; assay: Glasshouse spray test, mesotrione with carbonates A-D (Example 6), mean over four plant species; assay type: in vivo; details: 0.2% v/v carbonate with mesotrione, Table 10
Description: Brachiaria plantaginea, Digitaria sanguinalis, Commelina benghalensis and Polygonum convulvulus seeds were sown into standard soil in pots and cultivated under controlled conditions in a glasshouse (at 24/18° C. day/night; 16 hours light; 65% humidity).
When the plants were at the vegetative stage of 2-4 leaves they were sprayed with an aqueous spray solution containing the herbicide mesotrione and 0.2% v/v of one of the carbonates A, B, C and D (see Table 7).
The spray solution was applied with a cabinet tracksprayer with a flat fan nozzle (Teejet 11002VS) and an application volume of 200 liter/ha (at 2 bar). Mesotrione was applied at either 30 or 60 grams of pesticide per hectare.
as §6, with “25” for “14 and 21”, “injury or phytotoxicity” for “injury”
The results shown in Table 10 below are mean averages over the two rates of mesotrione, the three replicates and the four plant species and are compared to the efficacy of mesotrione in the absence of an adjuvant, and mesotrione in the presence of the commercially available tank-mix adjuvant, Tween 20 ®+Rhodasurf DA/630-E® (combined in a 2:1 ratio) at 0.5% by volume.

[12] = test system: Avena fatua, Lolium perenne, Setaria viridis and Alopecurus myosuroides; assay: Glasshouse spray test, pinoxaden with carbonates A-E (Example 7), mean over four plant species; assay type: in vivo; details: 0.2% v/v carbonate with pinoxaden, Tables 11 and 12
Description: Avena fatua, Lolium perenne, Setaria viridis and Alopecurus myosuroides seeds were sown into standard soil in pots and cultivated under controlled conditions in a glasshouse (at 20/16° C. day/night; 15 hours light; 65% humidity).
When the plants were at the vegetative stage of 2-3 leaves they were sprayed with an aqueous spray solution containing the herbicide pinoxaden and 0.2% v/v of one of the carbonates A, B, C, D and E (see Table 7).
The spray solution was applied with a cabinet tracksprayer with a flat fan nozzle (Teejet 11002VS) and an application volume of 200 liter/ha (at 2 bar). Pinoxaden was applied at either 7.5 or 15 grams of pesticide per hectare.
as §6, with “on.” for “on,”, “22” for “14 and 21”, “injury or phytotoxicity” for “injury”
The results shown in Table 11 below are mean averages over the two rates of pinoxaden, the three replicates and the four plant species, and are compared to the efficacy of pinoxaden in the absence of an adjuvant, and pinoxaden in the presence of tris(2-ethylhexyl)phosphate, used as a standard adjuvant for comparative purposes (at 0.2% by […] volume).

Septoria tritici [13] = assay: Septoria tritici on wheat, isopyrazam with compound E (Example 8); assay type: in vivo; details: 0.1% v/v compound E with isopyrazam, Table 13
Description: as §1, with “isopyrazam” for “epoxiconazole”
as §2, with “13” for “14”, “isopyrazam” for “epoxiconazole”

Fc1ccc([C@]2(Cn3cncn3)O[C@H]2c2ccccc2Cl)cc1 (racemic) [Epoxiconazole]
Mean % infection (Septoria tritici [1]; wheat leaf area infected 12 days after spray, epoxiconazole 3, 10, 30 and 100 mg/l, adjuvant 0.1% by volume, mean over four rates, four replicates): 40.0%

CS(=O)(=O)NC(=O)c1cc(Oc2ccc(C(F)(F)F)cc2Cl)ccc1[N+](=O)[O-] [Fomesafen]
Mean percentage kill CHEAL (Chenopodium album [2]): 58.3% | Mean percentage kill SETVI (Setaria viridis [3]): 19.2% | Mean percentage kill ABUTH (Abutilon theophrasti [4]): 23.3% | Mean percentage kill COMBEN (COMBEN): 15.0% | Mean percentage kill, Mean across species [5]: 29.0 C %

COc1cc(OC)nc(NC(=O)NS(=O)(=O)c2ncccc2C(=O)N(C)C)n1 [Nicosulfuron]
Mean percentage kill, Mean across species [6]: 49.0 B % | Mean percentage kill DIGSA (Digitaria sanguinalis): 31.7% | Mean percentage kill CHEAL (Chenopodium album [7]): 36.7% | Mean percentage kill SETVI (Setaria viridis [8]): 79.2% | Mean percentage kill ABUTH (Abutilon theophrasti [9]): 48.3% | Mean % Phytotoxicity ([10]; Table 8: nicosulfuron 15 or 60 g/ha, compounds A-D 0.2% by volume): 36.46% | Mean % Phytotoxicity ([10]; Table 9: nicosulfuron 15 or 60 g/ha, compound E 0.2% by volume): 28.3%

CCOC(=O)OCC(COC(=O)OCC)OC(=O)OCC [compound A, Glycerol-(CO3-ethyl)3]
Adjuvant effect on efficacy of mesotrione (in words) [11]: particularly effective at increasing the efficacy of mesotrione compositions | Adjuvant effect on efficacy of nicosulfuron (in words) [10]: increase the efficacy of nicosulfuron compositions

CCCCC(CC)COC(=O)OCC(COC(=O)OCC(CC)CCCC)OC(=O)OCC(CC)CCCC (stereo not drawn) [compound B, Glycerol-(CO3-2-ethylhexy1)3]
Adjuvant effect on efficacy of mesotrione (in words) [11]: particularly effective at increasing the efficacy of mesotrione compositions | Adjuvant effect on efficacy of nicosulfuron (in words) [10]: increase the efficacy of nicosulfuron compositions | Adjuvant effect on efficacy of pinoxaden (in words) [12]: most effective at increasing the efficacy of the pinoxaden composition

Glycerol-(6EO-CO3-2- ethylhexyl)3 [compound C]
Adjuvant effect on efficacy of nicosulfuron (in words) [10]: particularly effective as adjuvants for nicosulfuron

Glycerol-(6EO-CO3- phenyl)3 [compound D]
Adjuvant effect on efficacy of nicosulfuron (in words) [10]: particularly effective as adjuvants for nicosulfuron

Oleyl 10EO-(CO3-2- ethylhexyl) [compound E]
Effect on infection by S. tritici versus isopyrazam without adjuvant (in words) (Septoria tritici [13]): significant reduction in the percentage of infection by S. tritici | Effect on infection by S. tritici versus epoxiconazole without adjuvant (in words) (Septoria tritici [1]; 0.1% v/v compound E with epoxiconazole, Table 14): significant reduction in the percentage of infection by S. tritici | Adjuvant effect on efficacy of nicosulfuron (in words) [10]: particularly effective adjuvant for nicosulfuron | Adjuvant effect on efficacy of pinoxaden (in words) [12]: effective as an adjuvant for pinoxaden
